Eleven compounds from patent publication US5721210A, “Cyclic cell adhesion modulation compounds” (priority 1995, dated 1998) can be followed below.

Experiment [1] has as its system U937 cells (fibronectin receptor) adhering to fibronectin-coated wells.
The test system of experiment [2] is Jurkat T-cells adhering to IL-1 stimulated human umbilical vein endothelial cell monolayers. The experiment can be described thus: Jurkat-endothelial cell adhesion assay (Cell Adhesion Inhibition Assay II). It is filed as cell-based. The following applies: for 10 μM% (percentage inhibition at 10 μM): 10 μM peptide; for 10 μM% (percentage inhibition at 10 μM) / 200 μM% (percentage inhibition at 200 μM): Jurkat cells on IL-1 stimulated endothelial monolayers, 20 min at 37° C.; for 200 μM% (percentage inhibition at 200 μM): 200 μM peptide. The procedure: The following assay established the activity of the present compound in inhibiting cell-cell adhesion in a representative in vitro system. This assay measures the adhesive interactions of T-cells to endothelial cell monolayers in the presence of a test compound. The test compound is added in increasing concentrations with T-cells and this is added to endothelial cell monolayers. The plates are incubated, washed and the percentage of attached cells is quantitated.
Human umbilical vein endothelial cells were purchased from Clonetics (San Diego, Calif.) at passage number 2. The cells were grown on 0.5% porcine skin gelatin pre-coated flasks (Sigma, St. Louis, Mo.) in EGM-UV media (Clonetics, San Diego, Calif.) supplemented with 10% fetal bovine serum. Cells were refed every 2-3 days reaching confluence by day 4 to 6. […] The endothelial cells were not used following passage 14-15.
The T-cell line Jurkat was obtained from American Type Tissue Culture Collection (Rockville, Md.). The cells were cultured in RPMI media containing 10% fetal calf serum. The cells were washed twice with Hank's Balanced Salt Solution (HBSS) and resuspended in Dulbecco's […] Eagle's Media (DMEM) containing 2.5 mg/ml Human Serum Albumin (HSA). The Jurkat cells (1×10^6 cells/ml) were stained with 10 μg/ml fluorescein diacetate (Sigma, St. Louis, Mo.) in HSSS containing 5% fetal calf serum. The cells were stained for 15 minutes in the dark at room temperature, washed 2 times, and resuspended in a DMEM-HSA solution.
Confluent endothelial monolayers grown in 96-well tissue culture plates were stimulated for 4 hours at 37° C. with 0.1 ng/ml (^~ 50 U/ml) recombinant IL-1 (Amgen, Thousand Oaks, Calif.). Following this incubation, the monolayers were washed twice with HBSS and 0.1 ml of DMEM-HSA solution was added. Jurkat cells (5×10^5 cells) were combined with appropriate concentrations of a peptide to be tested and 0.1 ml of the Jurkat-peptide mixture were added to the endothelial cell monolayers. Generally, 200 and 10 μM peptide concentrations were tested. […] The plates were placed on ice for 5 minutes to allow for Jurkat cell settling and then incubated at 37° C. for 20 minutes. Following this incubation, the monolayers were washed twice with PBS containing 1 mM calcium chloride and 1 mM magnesium chloride and the plates were read using a Pandex Fluorescence Concentration Analyzer (Baxter, Mundelein, Ill.). Fluorescence in each well was measured as arbitrary fluorescence units and percent adhesion in the absence of a peptide was adjusted to 100% and the percentage adhesion in the presence of the peptide was calculated. Monolayers were also fixed in 3% paraformaldehyde and evaluated microscopically to verify adhesion.

Where [3] appears, read: read-out: IC50 μM, U937 cells on fibronectin-coated wells, 60 min at 37° C., concentration at which adhesion is inhibited to 50% of control.

Like-named read-outs stand apart in the source and are kept apart here. Bridge positions count the residues as written; N and C are the ends. Square brackets hold non-standard residues; d marks the D form. Peptide text beside a SMILES is read from it. * marks the point of attachment. Acetyl(1-adamantyl) = O=C(CC12CC3CC(CC(C3)C1)C2)*; 2Thi = N[C@@H](Cc1cccs1)C(=O)O; 4Amb = NCc1ccc(C(=O)O)cc1

As usually defined, the IC50 is the concentration that gives 50% inhibition. As for `N=C(N)NCCC[C@@H]1NC(=O)c2ccc(cc2)CNC(=O)[C@H](CC(=O)O)NC(=O)CNC1=O` (cyclo(RGD[4Amb])), the IC50 in experiment [1] is 251 µM.

Consider `N=C(N)NCCC[C@@H]1NC(=O)CNC(=O)C[C@@H](C(N)=O)NC(=O)[C@@H]2CCCN2C(=O)[C@H](CO)NC(=O)[C@H](CC(=O)O)NC(=O)CNC1=O` [Peptide 22, G*RGDSPD*-NH2] (GRGDSPD-NH2; lactam N-7), for which, in experiment [1] (setting [3]), the IC50 came to 112 µM. With `N=C(N)NCCC[C@@H]1NC(=O)CNC(=O)C[C@@H](C(N)=O)NC(=O)[C@@H]2CCCN2C(=O)[C@H](CO)NC(=O)[C@H](CC(=O)O)NC(=O)CNC1=O` [Peptide 47, G*RGDSPD*-NH2] (GRGDSPD-NH2; lactam N-7), the IC50 in experiment [1] (setting [3]) amounted to 134 µM. `N=C(N)NCCC[C@@H]1NC(=O)[C@@H](N)CSSC[C@@H](C(=O)O)NC(=O)[C@H](Cc2cccs2)NC(=O)[C@H](CC(=O)O)NC(=O)CNC1=O` [Peptide 70, C*RGD(TA)C*] (H-CRGD[2Thi]C-OH; disulfide 1-6): in experiment [1] (setting [3]), the half-inhibitory concentration (IC50) was determined as 190 µM.

As to `COc1ccc(C[C@@H]2NC(=O)[C@H](CC(=O)O)NC(=O)CNC(=O)[C@H](CCCNC(=N)N)NC(=O)[C@@H](NC(=O)CNC(=O)CNC(=O)CC34CC5CC(CC(C5)C3)C4)CSSC[C@@H](C(N)=O)NC(=O)[C@@H]3CCCN3C2=O)cc1` [Peptide 96, (Ada)-GGC*RGDY(p-OCH3 -Tyr)PC*-NH2] ({Acetyl(1-adamantyl)}-GGCRGDY(Me)PC-NH2; disulfide 3-9), the IC50 in experiment [1] (setting [3]) is 9 µM. Take `N=C(N)NCCC[C@H](N)C(=O)N[C@H]1CSSC[C@@H](C(=O)O)NC(=O)[C@H](Cc2cccs2)NC(=O)[C@H](CC(=O)O)NC1=O` [Peptide 101, RC*D(TA)C*] (H-RCD[2Thi]C-OH; disulfide 2-5): in experiment [1] (setting [3]), the IC50 is 258 µM. The same measure, in the same setting: next, (1-FCA)RC*D(TTC)C* [Peptide 132]: 92 µM; (CPA)-RC*D-(3-thioPro)C* [Peptide 110]: 8 µM. (FMOC)-RC*(DTC)C* [Peptide 156]: in experiment [2], the “10 μM% (percentage inhibition at 10 μM)” value was 90% and the “200 μM% (percentage inhibition at 200 μM)” value was found to be 32%.

(FMOC)-RC*D(TTC)C* [Peptide 166]: in experiment [2], the “10 μM% (percentage inhibition at 10 μM)” value is listed as 18% and the “200 μM% (percentage inhibition at 200 μM)” value is recorded as 11%. Also, the IC50 in experiment [2] (Jurkat-endothelial cell adhesion, peptides tested at 200, 40, 8, 1.6, 0.32, 0.064 μM) stood at 0.9 µM.

RC*D(TTC)C* [Peptide 122]: the IC50 in experiment [1] (setting [3]) is 6 µM.
